“Also recorded” adds a separate entry of the source.
Tests used:
[1] = system: retroperitoneal white adipose tissue; assay: Norepinephrine stimulation in vivo: gene expression in white fat; design: species or system mice; details: NE 0.3 mg/kg s.c., 4 hours after injection, 30° C.
Description: Norepinephrine Stimulation In Vivo.
To measure the norepinephrine-induced gene expression changes in white fat, the mice after 6 weeks enrichment or control housing were anesthetized with pentobarbital (90 mg/kg, i.p.) and injected with 0.3 mg/kg norepinephrine (s.c.). The mice were maintained at 30° C. throughout the experiment. Fat pads were dissected 4 h after norepinephrine injection. qRT-PCR was used to profile gene expression in white fat.

white adipose tissue = assay: Propranolol experiment: EE-induced gene program in white adipose tissue (qRT-PCR); type: in vivo, C57BL/6 mice; details: propranolol in drinking water (0.5 g/L), EE or control housing for 5 weeks
Source text: We randomly assigned 40 C57BL/6 mice, 3 weeks of age, to live in enriched or control cages supplied with propranolol in drinking water (0.5 g/L). We collected blood 3 weeks after enrichment and dissected fat pads after 5 weeks enrichment.

Row | SMILES | Lep expression in EE retroperitoneal white adipose tissue ([1]; EE mice) | Ucp1 expression in EE retroperitoneal white adipose tissue ([1]; EE mice) | gene expression changes in control retroperitoneal white adipose tissue ([1]; control-housed mice) | EE-associated molecular features of white adipose tissue (white adipose tissue)
1 | NC[C@H](O)c1ccc(O)c(O)c1 [NE, norepinephrine] | further reduced significantly | highly increased | failed to induce significant changes | 
2 | CC(C)NCC(O)COc1cccc2ccccc12 (stereo not shown) [Propranolol, propranolol] |  |  |  | efficiently blocked the molecular features associated with EE; also recorded: blocked enrichment-associated molecular features of white adipose tissue
